# Key:
# xrcc3− tumors = test: Mouse xenograft tumor model, xrcc3- tumors, intratumoral cisplatin; type: in vivo; conditions: xrcc3− tumors in nude mice; 0.1 ml 100 μg/ml cisplatin injected into tumors on days 1-5
# Protocol: (§1) The sensitivity of XRCC3 defective cells to cis-platinum is also reflected in the ability of the drug to cause regression and cure of tumors in a mouse xenograft tumor model. Groups of 12 nude mice were injected in the hind limb with 5X105 XRCC3+ cells or xrcc3− cells. XRCC3+ lines (essentially equivalent to the PXR3 lines described above) and isogenic xrcc3− lines (equivalent to the irs1SF line described above), were injected into nude mice. Tumors were allowed to grow for 2 weeks (volumes of 300-500 mm3). On days 1-5 tumors were injected with 0.1 ml 100 μg/ml cisplatin in PBS or with the same volume of PBS alone. […] Tumor volumes were measured at 3-5 day intervals starting on the first day of treatment. Fractional tumor volumes were calculated as the volume of the tumor on a particular day divided by the volume of the tumor on the day of the first treatment. The fractional tumor volumes in mice injected with XRCC3+ positive cells increased regardless of whether they received cisplatin treatment or the control treatment; the final fractional tumor volume for both the treated and untreated groups was about 5 on average. […] Fractional tumor volume was about 5 on average for the untreated cells and about 0.05 on average for the tumors treated with cisplatin.
# [1] = system: Rad51 foci in CHO PXR3 cells; test: Cisplatin-induced Rad51 focus formation (a-Rad51 immunostaining) in PXR3 cells; type: cell-based, Chinese hamster; conditions: foci per nucleus, single focal plane
# Protocol: (§2) Cisplatin treatment: For dose response studies, the cultures were washed twice in serum-free medium and then incubated for 1 hour in serum-free medium containing varying concentrations of cisplatin (Bristol Laboratories). After the incubation, the dishes were washed three times in serum-free medium and complete medium was added. Cultures were then placed at 37° C. for 3 hours at which time a single-cell suspension was obtained with trypsin/EDTA and the cells were prepared for immunostaining. For time course studies, cell cultures were washed twice in serum-free medium and incubated for one hour in serum-free medium containing 10 μM cisplatin. After incubation, the cells were washed and incubated in complete medium. At the appropriate times the cells were harvested by trypsin treatment and prepared for immunostaining. Immunostaining: Fixed cells were transferred to slides using a Cytospin 2 (Shandon, Pittsburgh, Pa.) centrifuge. Slides were washed twice in Tris-buffered saline (TBS) and incubated for 15 minutes in TBS 1% bovine serum albumin BSA at room temperature. The wash was removed and anti-Rad51 antibody in TBS 1% BSA was applied. The slides were incubated overnight at 4° C. in a humidified chamber. The slides were washed twice in TBS and secondary antibody (fluorescein-conjugated goat anti-rabbit; Molecular Probes, Inc., Eugene, Oreg.) was applied at a 1:1000 dilution in the dark. […]
# XRCC3+ tumors = test: Mouse xenograft tumor model, XRCC3+ tumors, intratumoral cisplatin; type: in vivo; conditions: XRCC3+ tumors in nude mice; 0.1 ml 100 μg/ml cisplatin injected into tumors on days 1-5
# Protocol: as §1
# [2] = system: Rad51 foci in CHO AA8 cells; test: Cisplatin-induced Rad51 focus formation (a-Rad51 immunostaining) in AA8 cells; type: cell-based, Chinese hamster; conditions: for Induction of Rad51 foci: then 3 hours before fixation
# Protocol: as §2, with “dark. The slides were incubated at room temperature in the dark for 1 hour. The slides were washed twice with TBS and stained with DAPI (0.1 μg/ml in TBS) for 5 minutes. The slides were dried and coverslips mounted with Vectashield mounting medium (Vector Laboratories Inc., Burlingame, Calif.). Microscopy: Immunostained samples were examined via standard epifluorescence microscopy using a Ziess Photoscope III through a 100X objective. Digital images were obtained with a CCD camera (Imagepoint, Photometrics Inc., Tucson, Ariz.). A single focal plane was documented for each nucleus. Therefore, the numbers presented are less than the total number of foci per nucleus.” for “dark.”
# CHO cells = conditions: 1 μM cisplatin for 1 hour; cited from earlier work
# [3] = system: Rad51 foci in CHO CXR3 cells; test: Cisplatin-induced Rad51 focus formation (a-Rad51 immunostaining) in CXR3 cells; type: cell-based, Chinese hamster; conditions: foci per nucleus, single focal plane
# Protocol: as §2
# [4] = system: Rad51 foci in CHO irs1SF cells; test: Cisplatin-induced Rad51 focus formation (a-Rad51 immunostaining) in irs1SF cells; type: cell-based, Chinese hamster
# Protocol: as §2
structure (smiles),measurement,setting,value
N.N.[Cl][Pt][Cl] [cisplatin],"Fractional tumor volume (volume on day / volume on day of first treatment), average",xrcc3− tumors,about 0.05
same,Rad51 foci induced by cisplatin treatment,[1],up to 30 foci
same,"Final fractional tumor volume (volume on day / volume on day of first treatment), average",XRCC3+ tumors,about 5
same,Induction of Rad51 foci,[2]; 1 μM cisplatin for 1 hour,Significant induction of foci
same,Induction of Rad51 foci,[2]; 10 μM cisplatin for 1 hour,Near maximum induction of foci
same,Rad51 foci induced by cisplatin treatment,"[2]; AA8 cells, foci per nucleus, single focal plane",up to 30 foci
same,Cells that survive,CHO cells,50-80%
same,Rad51 foci induced by cisplatin treatment,[3],up to 30 foci
same,Induction of Rad51 foci by cisplatin treatment,[4],no induction of foci was detected

# Source: patent publication US20010036929A1, “Xrcc3 is required for assembly of Rad51-complexes in vivo” (ARCH Development Corporation., priority 1998, published 2001)
